# Assay results: article PMC10120551, “Novel Glu-based pyrazolo[3,4-d]pyrimidine analogues: design, synthesis and biological evaluation as DHFR and TS dual inhibitors” (Journal of Enzyme Inhibition and Medicinal Chemistry, 2023)
# Read-outs that look alike come from different tables or passages of the source.
# How the values were obtained:
# COLO 205 [1] = conditions: COLO 205, Colon cancer; five-dose 0.01–100 µM
# SNB-19 [2] = conditions: SNB-19, CNS cancer; five-dose 0.01–100 µM
# SK-OV-3 = experiment: cells; conditions: Homo sapiens
# MDA-MB-231/ATCC [3] = conditions: Breast cancer, five-dose 0.01–100 µM
# CCRF-CEM [4] = experiment: cells; conditions: Homo sapiens
# A498 = experiment: cells; conditions: Homo sapiens
# UO-31 = experiment: cells; conditions: Homo sapiens
# full NCI 59 cell panel = experiment: cells; conditions: Homo sapiens
# MDA-MB-231/ATCC [5] = experiment: cells; conditions: Homo sapiens
# OVCAR-4 = experiment: NCI one-dose screen (SRB); type: cell-based, human; conditions: OVCAR-4, Ovarian cancer; 10 µM single dose
# Procedure: (§1) The growth percentage (G%) and cell viability of the herein target compounds 6a–l, 7a,b, and 9a–c have been screened towards a full panel of 59 cancer cells at NCI’s Developmental Therapeutics Program (NCI-DTP, MD, USA)[21]. The submitted analogues were initially examined for preliminary in vitro anticancer activity using sulforhodamine B (SRB) assay at 10 µM as a single dose to evaluate cell growth and viability according to the procedure of Drug Evaluation Branch[22]^,[23].
# (§2) Different types of tumours – colon, NSCLC, leukaemia, CNS, renal, breast, ovarian, melanoma, and prostate cancers – were investigated as a full panel of 59 cell lines, and the attained results are cited in Figures S1–S17 (see Supplementary Material) where the value recorded is the growth relative to that of both the negative control and zero-time number of cells in which both growth inhibition (GI%; 0–100%) and lethality (L%; 0–100%) percentages can be identified. The growth inhibition means percentages (MGI%) for the examined target analogues towards the different treated 59 cancer cells were presented in Figure 2.
# (§3) The designed analogues were submitted to NCI-Chemotherapeutic Agents Repository (MD, USA) for screening on a panel of 59 cancer cell lines. All compounds were initially examined at 10 µM concentration (Single-Dose Screen), and then the most efficient analogue 6i was screened further at 0.01–100 µM (Five-Dose Screen). The screening procedures were performed according to NCI-Drug Evaluation Branch protocol using SRB protein assay, as described previously[21]^,[66]. The experimental procedures were detailed in the Supporting Information.
# HOP-92 = experiment: NCI one-dose screen (SRB); type: cell-based, human; conditions: HOP-92, NSCLC; 10 µM single dose
# Procedure: as §1, §2, §3
# MOLT-4 [6] = experiment: NCI one-dose screen (SRB); type: cell-based, human; conditions: MOLT-4, Leukaemia; 10 µM single dose
# Procedure: as §1, §2, §3
# NCI-H226 = experiment: NCI one-dose screen (SRB); type: cell-based, human; conditions: NCI-H226, NSCLC; 10 µM single dose
# Procedure: as §1, §2, §3
# CCRF-CEM [7] = experiment: NCI one-dose screen (SRB); type: cell-based, human; conditions: Leukaemia, 10 µM single dose
# Procedure: as §1, §2, §3
# LOX IMVI = experiment: NCI one-dose screen (SRB); type: cell-based, human; conditions: Melanoma, 10 µM single dose
# Procedure: as §1, §2, §3
# SF-295 = experiment: NCI one-dose screen (SRB); type: cell-based, human; conditions: SF-295, CNS; 10 µM single dose
# Procedure: as §1, §2, §3
# U251 = experiment: NCI one-dose screen (SRB); type: cell-based, human; conditions: U251, CNS cancer; 10 µM single dose
# Procedure: as §1, §2, §3
# MDA-MB-468 = experiment: NCI one-dose screen (SRB); type: cell-based, human; conditions: MDA-MB-468, Breast; 10 µM single dose
# Procedure: as §1, §2, §3
# MDA-MB-435 = experiment: NCI one-dose screen (SRB); type: cell-based, human; conditions: MDA-MB-435, Melanoma; 10 µM single dose
# Procedure: as §1, §2, §3
# PC-3 [8] = experiment: NCI one-dose screen (SRB); type: cell-based, human; conditions: PC-3, Prostate; 10 µM single dose
# Procedure: as §1, §2, §3
# NCI-H522 = experiment: NCI one-dose screen (SRB); type: cell-based, human; conditions: NCI-H522, NSCLC; 10 µM single dose
# Procedure: as §1, §2, §3
# OVCAR-3 = experiment: NCI one-dose screen (SRB); type: cell-based, human; conditions: OVCAR-3, Ovarian; 10 µM single dose
# Procedure: as §1, §2, §3
# COLO 205 [9] = experiment: NCI one-dose screen (SRB); type: cell-based, human; conditions: COLO 205, Colon cancer; 10 µM single dose
# Procedure: as §1, §2, §3
# SF-268 = experiment: NCI one-dose screen (SRB); type: cell-based, human; conditions: SF-268, CNS; 10 µM single dose
# Procedure: as §1, §2, §3
# SNB-19 [10] = experiment: cells; conditions: Homo sapiens
# PC-3 [11] = conditions: PC-3, Prostate cancer; five-dose 0.01–100 µM
# CAKI-1 = experiment: cells; conditions: Homo sapiens
# HT29 = conditions: HT29, Colon cancer; five-dose 0.01–100 µM
# SN12C = conditions: Renal cancer, five-dose 0.01–100 µM
# MOLT-4 [12] = conditions: MOLT-4, Leukaemia; five-dose 0.01–100 µM
# T-47D = conditions: Breast cancer, five-dose 0.01–100 µM
structure (smiles),measurement,setting,value
CCOC(=O)CC[C@H](NC(=O)c1ccc(NC(=O)Cn2cnc3c(c(C)nn3-c3ccc(Br)cc3)c2=O)cc1)C(=O)OCC [Compound 6i],TGI,COLO 205 [1],36.7 µM
same,TGI,SNB-19 [2],27.3 µM
same,GI50,SK-OV-3; SK-OV-3,21.8 µM
same,CC50,"SK-OV-3; SK-OV-3, read-out: LC50",> 100 µM
same,TGI,MDA-MB-231/ATCC [3],26.8 µM
same,GI50,CCRF-CEM [4],14.5 µM
same,CC50,CCRF-CEM [4]; read-out: LC50,> 100 µM
same,GI50,A498; A498,24.9 µM
same,CC50,"A498; A498, read-out: LC50",93 µM
same,GI50,UO-31; UO-31,18.1 µM
same,CC50,"UO-31; UO-31, read-out: LC50",> 100 µM
same,GI50,"full NCI 59 cell panel; range over HOP-62, A549/ATCC, HOP-92, NCI-H23, NCI-H226, SF-268, HCT-116, OVCAR-8, LOX IMVI, DU-145, PC-3, 786-0, BT-549, MCF7",3.93 to 9.85 µM
same,GI50,full NCI 59 cell panel; range over the residual examined cell lines,10.1 to 71 µM
same,CC50,"full NCI 59 cell panel; read-out: LC50, most of the examined cancer cells",> 100 µM
same,CC50,"full NCI 59 cell panel; read-out: LC50, range over the 23 cell lines listed in b28 as exceptions",47 to 96.1 µM
same,GI50,MDA-MB-231/ATCC [5]; MDA-MB-231,11.5 µM
same,CC50,"MDA-MB-231/ATCC [5]; MDA-MB-231, read-out: LC50",62.5 µM
same,GI%,OVCAR-4,66.09%
same,GI%,HOP-92,78.29%
same,GI%,MOLT-4 [6],52.51%
same,L% (lethality),NCI-H226,37.32%
same,GI%,CCRF-CEM [7],70.05%
same,GI%,LOX IMVI,78.49%
same,GI%,SF-295,89.78%
same,GI%,U251,53.30%
same,GI%,MDA-MB-468,92.44%
same,GI%,MDA-MB-435,57.10%
same,GI%,PC-3 [8],91.71%
same,GI%,NCI-H522,52.34%
same,GI%,OVCAR-3,96.83%
same,GI%,COLO 205 [9],71.69%
same,GI%,SF-268,85.11%
same,GI50,SNB-19 [10]; SNB-19,12.1 µM
same,CC50,"SNB-19 [10]; SNB-19, read-out: LC50",61.3 µM
same,TGI,PC-3 [11],19.4 µM
same,GI50,CAKI-1; CAKI-1,10.4 µM
same,CC50,"CAKI-1; CAKI-1, read-out: LC50",47 µM
same,TGI,HT29,71.7 µM
same,TGI,SN12C,>100 µM
same,TGI,MOLT-4 [12],>100 µM
same,TGI,T-47D,>100 µM
